Values quoted from earlier work in article PMC11901902, “Design, Synthesis, and Cytotoxicity Evaluation of Novel Indolin-2-One Based Molecules on Hepatocellular Carcinoma HepG2 Cells as Protein Kinase Inhibitors” (Molecules, 2025).

System: HepG2 cells
Design: method as in PMID 34208562
Details: relative to sunitinib; cited from earlier work

Cc1cc(C)c(/C=C2\C(=O)Nc3ccccc32)[nH]1 [Semaxanib]
fold more cytotoxic activity than sunitinib: 3 fold
